The subject of one assay is E-cadherin expression in SW620 cells. Kind of assay: In-cell Western (ICW) cell-based functional assay of E-cadherin expression in SW620 cells. Conditions: Homo sapiens, SW-620; change in expression level of E-cadherin in response to 10 μM compound, SW620 cells, 24 hours. The procedure:
SW620 and H520 cells (5×10^4/100 μL) were seeded in a 96-well plate prior to treatment. Cells were treated with 10 μM concentration of synthesized compound in quadruplicate for 24 hours in RPMI 1640 supplemented medium and 100 μg/mL penicillin-streptomycin. The cells were then fixed with 100% methanol for 20 minutes at 4° C. The wells were then washed 2 times with PBS, permeabilized in 2% bovine serum albumin (BSA) and 0.2% TritonX-100 in PBS for 30 minutes at room temperature with gentle agitation, and blocked in LI-COR blocking buffer for 30 minutes at room temperature with gentle agitation. The cells were then incubated with the following primary antibodies: anti-E-Cadherin (1:500) and anti-α-Tubulin (1:1000) diluted in blocking buffer (1:1 dilution in PBS) for 2 hours at room temperature with gentle agitation. The cells were washed 4 times in PBS-T for 5 minutes each, and then incubated with the following secondary antibodies conjugated to a fluorescent entity: IRDye 800-conjugated goat anti-rabbit IgG (1:1000) and IRDye-700-conjugated goat anti-mouse IgG (1:2000) in blocking buffer (1:1 dilution in PBS) with gentle agitation for 1 h at room temperature. The cells were washed 4 times in PBS-T for 5 minutes each followed by a single wash with PBS. All liquid was removed from the wells and the plates were visualized and analyzed on the Odyssey IR imaging system (LI-COR Biosciences).
The assay was further optimized in the following manner. The cells were washed 2 times with PBS, fixed in 100% methanol at room temperature for 15 minutes, and again washed 2 times with PBS. The cells were then incubated with the following primary antibodies: anti-E-Cadherin (1:200) and anti-α-Tubulin (1:2000) diluted in ice cold 2% bovine serum albumin (BSA) and 0.2% TritonX-100 in PBS for 1 hour at room temperature with gentle agitation. The cells were washed 2 times in PBS and then incubated with the following secondary antibodies conjugated to a fluorescent entity: Licor 800-conjugated goat anti-rabbit IgG (1:2000) and IRDye-700-conjugated goat anti-mouse IgG (1:2000) in ice cold 2% BSA and 0.2% TritonX-100 in PBS with gentle agitation for 45 minutes at room temperature. The wells were washed 2 times in PBS, dried, and analyzed as previously mentioned.
N-(3-(Arylamino)alkyl)-5-arylisoxazole-3-carboxamide analogs were synthesized as described above. Changes in expression level of E-cadherin in response to 10 μM compound in SW620 cells was determined in the cell-based functional assay as described above, and the data are shown in Table II. The compound number corresponds to the compound numbers used in Table I.
EC50 of inducement of E-cadherin expression in SW620 cells was determined in the cell-based functional assay as described above, and the data are shown in Table III. The compound number corresponds to the compound numbers used in Table I.
A word on the fold induction: it is the ratio of treated to control signal. Turning to `CC(=O)n1cc(CNCCCNC(=O)c2cc(-c3ccccc3)on2)c2ccccc21` [Compound 13, N-(3-(((1-acetyl-1H-indol-3-yl)methyl)amino)propyl)-5-phenylisoxazole-3-carboxamide], the fold induction at 10 µM was found to be 0.91. On the same count and under the same terms, the same measure for `Cc1ncc(CN(CCCNC(=O)c2cc(-c3ccccc3)[nH]n2)Cc2cnc(C)o2)o1` [Compound 25, N-(3-(bis((2-methyloxazol-5-yl)methyl)amino)propyl)-5-phenyl-1H-pyrazole-3-carboxamide]: 1.54; for `O=C(NCCCN(Cc1ccccn1)Cc1ccccn1)c1cc(-c2ccccc2)on1` [Compound 6, N-(3-(bis(pyridin-2-ylmethyl)amino)propyl)-5-phenylisoxazole-3-carboxamide]: 0.82. For the molecule `O=C(NCCCNCc1c[nH]c2ncccc12)c1cc(-c2ccccc2)[nH]n1` [Compound 30, N-(3-(((1H-pyrrolo[2,3-b]pyridin-3-yl)methyl)amino)propyl)-5-phenyl-1H-pyrazole-3-carboxamide], the fold induction at 10 µM is 2.33. `O=C(NCCCNCc1c[nH]c2ccccc12)c1cc(-c2ccccc2)on1` [Compound 2, N-(3-(((1H-indol-3-yl)methyl)amino)propyl)-5-phenylisoxazole-3-carboxamide]: the fold induction at 10 µM was found to be 0.68. In the case of `O=C(NCCCNCc1c[nH]c2ncccc12)c1cc(-c2ccccc2)on1` [Compound 10, N-(3-(((1H-pyrrolo[2,3-b]pyridin-3-yl)methyl)amino)propyl)-5-phenylisoxazole-3-carboxamide], the fold induction at 10 µM was 0.91. `O=C(NCCCN(Cc1cnoc1)Cc1cnoc1)c1cc(-c2ccccc2)[nH]n1` [Compound 36, N-(3-(bis(isoxazol-4-ylmethyl)amino)propyl)-5-phenyl-1H-pyrazole-3-carboxamide]: the fold induction at 10 µM amounted to 5.77. Regarding `COc1cncc(CNCCCNC(=O)c2cc(-c3ccccc3)[nH]n2)c1` [Compound 28, N-(3-(((5-methoxypyridin-3-yl)methyl)amino)propyl)-5-phenyl-1H-pyrazole-3-carboxamide], the fold induction at 10 µM was determined as 1.8.

On to `O=C(NCCCNc1nccc(Cl)n1)c1cc(-c2ccccc2)[nH]n1` [Compound 38, N-(3-((4-chloropyrimidin-2-yl)amino)propyl)-5-phenyl-1H-pyrazole-3-carboxamide], for which the fold induction at 10 µM was 7.36. Same read-out and setting: the same measure for `O=C(NCCCNCc1cccnc1)c1cc(-c2ccccc2)on1` [Compound 3, 5-phenyl-N-(3-((pyridin-3-ylmethyl)amino)propyl)isoxazole-3-carboxamide]: 0.7; for `[N-]=[N+]=Nc1nccc(NCCCNC(=O)c2cc(-c3ccccc3)on2)n1` [Compound 17, N-(3-((2-azidopyrimidin-4-yl)amino)propyl)-5-phenylisoxazole-3-carboxamide]: 1.07. As to `COc1cncc(CNCCCNC(=O)c2cc(-c3ccccc3)on2)c1` [Compound 9, N-(3-(((5-methoxypyridin-3-yl)methyl)amino)propyl)-5-phenylisoxazole-3-carboxamide], the fold induction at 10 µM is 0.89. As for `O=C(NCCCNCc1ccccn1)c1cc(-c2ccccc2)[nH]n1` [Compound 23, 5-phenyl-N-(3-((pyridin-2-ylmethyl)amino)propyl)-1H-pyrazole-3-carboxamide], the fold induction at 10 µM stood at 1.44. In the case of `O=C(NCCCNCc1ccccn1)c1cc(-c2ccccc2)on1` [Compound 5, 5-phenyl-N-(3-((pyridin-2-ylmethyl)amino)propyl)isoxazole-3-carboxamide], the fold induction at 10 µM amounted to 0.71.

Regarding `COc1cncc(CN(CCCNC(=O)c2cc(-c3ccccc3)[nH]n2)Cc2cncc(OC)c2)c1` [Compound 29, N-(3-(bis((5-methoxypyridin-3-yl)methyl)amino)propyl)-5-phenyl-1H-pyrazole-3-carboxamide], the fold induction at 10 µM stood at 2.09. Still for that read-out and setting: the same measure for `Cc1cc(CNCCCNC(=O)c2cc(-c3ccccc3)on2)on1` [Compound 11, N-(3-(((3-methylisoxazol-5-yl)methyl)amino)propyl)-5-phenylisoxazole-3-carboxamide]: 0.9; for `O=C(NCCCNCc1ccccc1O)c1cc(-c2ccccc2)on1` [Compound 16, N-(3-((2-hydroxybenzyl)amino)propyl)-5-phenylisoxazole-3-carboxamide]: 0.98; for `O=C(NCCCNCc1cnoc1)c1cc(-c2ccccc2)on1` [Compound 14, N-(3-((isoxazol-4-ylmethyl)amino)propyl)-5-phenylisoxazole-3-carboxamide]: 0.94. Same read-out and setting: the same measure for `Cc1ncc(CNCCCNC(=O)c2cc(-c3ccccc3)on2)o1` [Compound 4, N-(3-(((2-methyloxazol-5-yl)methyl)amino)propyl)-5-phenylisoxazole-3-carboxamide]: 0.71; for `O=C(NCCCNCc1cccnc1)c1cc(-c2ccccc2)[nH]n1` [Compound 22, 5-phenyl-N-(3-((pyridin-3-ylmethyl)amino)propyl)-1H-pyrazole-3-carboxamide]: 1.16. On the same count and under the same terms, the same measure for `O=C(NCCCNCc1ccc(O)cc1O)c1cc(-c2ccccc2)[nH]n1` [Compound 33, N-(3-((2,4-dihydroxybenzyl)amino)propyl)-5-phenyl-1H-pyrazole-3-carboxamide]: 3.4.

For `Cc1cc(CN(CCCNC(=O)c2cc(-c3ccccc3)[nH]n2)Cc2cc(C)no2)on1` [Compound 32, N-(3-(bis((3-methylisoxazol-5-yl)methyl)amino)propyl)-5-phenyl-1H-pyrazole-3-carboxamide], the fold induction at 10 µM was determined as 3.06.

`N#Cc1ccc(NCCCNC(=O)c2cc(-c3ccccc3)on2)nc1` [Compound 1, N-(3-((5-cyanopyridin-2-yl)amino)propyl)-5-phenylisoxazole-3-carboxamide]: the fold induction at 10 µM came to 0.63. For the molecule `Cc1ncc(CNCCCNC(=O)c2cc(-c3ccccc3)[nH]n2)o1` [Compound 24, N-(3-(((2-methyloxazol-5-yl)methyl)amino)propyl)-5-phenyl-1H-pyrazole-3-carboxamide], the fold induction at 10 µM came to 1.5. On to `O=C(NCCCNCc1ccccc1O)c1cc(-c2ccccc2)[nH]n1` [Compound 21, N-(3-((2-hydroxybenzyl)amino)propyl)-5-phenyl-1H-pyrazole-3-carboxamide], for which the fold induction at 10 µM came out at 1.14. Consider `O=C(NCCCN(Cc1ccc(O)c(O)c1)Cc1ccc(O)c(O)c1)c1cc(-c2ccccc2)[nH]n1` [Compound 27, N-(3-(bis(3,4-dihydroxybenzyl)amino)propyl)-5-phenyl-1H-pyrazole-3-carboxamide], for which the fold induction at 10 µM came out at 1.67. The same measure, in the same setting: the same measure for `Cc1ncc(CN(CCCNC(=O)c2cc(-c3ccccc3)on2)Cc2cnc(C)o2)o1` [Compound 7, N-(3-(bis((2-methyloxazol-5-yl)methyl)amino)propyl)-5-phenylisoxazole-3-carboxamide]: 0.83. On to `O=C(NCCCNCc1ccc(O)cc1O)c1cc(-c2ccccc2)on1` [Compound 12, N-(3-((2,4-dihydroxybenzyl)amino)propyl)-5-phenylisoxazole-3-carboxamide], for which the fold induction at 10 µM stood at 0.91. As for `O=C(NCCCNCc1c[nH]c2ccccc12)c1cc(-c2ccccc2)[nH]n1` [Compound 26, N-(3-(((1H-indol-3-yl)methyl)amino)propyl)-5-phenyl-1H-pyrazole-3-carboxamide], the fold induction at 10 µM came to 1.64. Same read-out and setting: the same measure for `O=C(NCCCNCc1ccc(O)c(O)c1)c1cc(-c2ccccc2)on1` [Compound 8, N-(3-((3,4-dihydroxybenzyl)amino)propyl)-5-phenylisoxazole-3-carboxamide]: 0.84.

For `O=C(NCCCNCc1cnoc1)c1cc(-c2ccccc2)[nH]n1` [Compound 35, N-(3-((isoxazol-4-ylmethyl)amino)propyl)-5-phenyl-1H-pyrazole-3-carboxamide], the fold induction at 10 µM stood at 3.59. Take `O=C(NCCCN(Cc1cnoc1)Cc1cnoc1)c1cc(-c2ccccc2)on1` [Compound 15, N-(3-(bis(isoxazol-4-ylmethyl)amino)propyl)-5-phenylisoxazole-3-carboxamide]: the fold induction at 10 µM was 0.95.

Still in this assay, the particulars now being: Homo sapiens, SW-620; inducement of E-cadherin expression in SW620 cells.
What is called EC50 is the concentration that produces a half-maximal response. In turn, `O=C(NCCCN(Cc1cnoc1)Cc1cnoc1)c1cc(-c2ccccc2)[nH]n1` [Compound 36, N-(3-(bis(isoxazol-4-ylmethyl)amino)propyl)-5-phenyl-1H-pyrazole-3-carboxamide] returned a half-maximal effective concentration (EC50) of 12 µM. For `O=C(NCCCNc1nccc(Cl)n1)c1cc(-c2ccccc2)[nH]n1` [Compound 38, N-(3-((4-chloropyrimidin-2-yl)amino)propyl)-5-phenyl-1H-pyrazole-3-carboxamide], the EC50 turned out to be 22.9 µM.

(Values after patent US9505729B2, “Isoxazole analogs as mediators of transcriptional induction of E-cadherin” (Vanderbilt University, priority 2014, dated 2016).)
